Reference: the NIST ThermoML archive (doi:10.1016/j.jct.2012.09.004)

How the values were obtained:
[1] = Pendant drop shape
[2] = refractive index (Na D-line) (dimensionless); conditions: 101.33 kPa, Liquid, Standard Abbe refractometry
[3] = wn = mass fraction of the nth substance listed; conditions: Pendant drop shape
[4] = refractive index (Na D-line) (dimensionless); wn = mass fraction of the nth substance listed; conditions: 101 kPa, Liquid, Standard Abbe refractometry

CC(CC(C)(C)C)CP(=O)([O-])CC(C)CC(C)(C)C.CCCCCCCCCCCCCC[P+](CCCCCC)(CCCCCC)CCCCCC
Conditions | refractive index | surface tension liquid-gas [mN/m]
[1], 297.9 K | – | 28.2
[1], 307.9 K | – | 27.6
[1], 317.7 K | – | 26.9
[1], 328.1 K | – | 26.2
[1], 338 K | – | 25.5
[1], 342.9 K | – | 25
[2], 283.15 K | 1.47702 | –
[2], 288.15 K | 1.47538 | –
[2], 293.15 K | 1.47374 | –
[2], 298.15 K | 1.47209 | –
[2], 303.15 K | 1.47044 | –
[2], 308.15 K | 1.46879 | –
[2], 313.15 K | 1.46712 | –
[2], 318.15 K | 1.46546 | –
[2], 323.15 K | 1.46383 | –
[2], 328.15 K | 1.46216 | –
[2], 333.15 K | 1.46056 | –
[2], 338.15 K | 1.45893 | –
[2], 343.15 K | 1.45716 | –
[2], 348.15 K | 1.45553 | –
[2], 353.15 K | 1.45387 | –

CCCCCCCCCCCCCC[P+](CCCCCC)(CCCCCC)CCCCCC.O=S(=O)([N-]S(=O)(=O)C(F)(F)F)C(F)(F)F
Conditions | refractive index | surface tension liquid-gas [mN/m]
[1], 298.2 K | – | 30.1
[1], 307.9 K | – | 29.5
[1], 317.9 K | – | 28.7
[1], 327.9 K | – | 28.1
[1], 337.8 K | – | 27.5
[1], 343.2 K | – | 27.3
[2], 283.15 K | 1.45436 | –
[2], 288.15 K | 1.45279 | –
[2], 293.15 K | 1.4512 | –
[2], 298.15 K | 1.4496 | –
[2], 303.15 K | 1.44797 | –
[2], 308.15 K | 1.44637 | –
[2], 313.15 K | 1.44476 | –
[2], 318.15 K | 1.44317 | –
[2], 323.15 K | 1.44158 | –
[2], 328.15 K | 1.43948 | –
[2], 333.15 K | 1.43836 | –
[2], 338.15 K | 1.43681 | –
[2], 343.15 K | 1.43524 | –
[2], 348.15 K | 1.4337 | –
[2], 353.15 K | 1.43213 | –

CC(CC(C)(C)C)CP(=O)([O-])CC(C)CC(C)(C)C.CCCCCCCCCCCCCC[P+](CCCCCC)(CCCCCC)CCCCCC + O
w2 = 0.158
Conditions | refractive index | surface tension liquid-gas [mN/m]
[3], 297.9 K | – | 28.32
[3], 307.9 K | – | 27.7
[3], 317.9 K | – | 27.24
[3], 328.8 K | – | 26.41
[3], 339 K | – | 25.6
[3], 343.4 K | – | 25.34
[4], 298.15 K | 1.45864 | –
[4], 303.15 K | 1.45697 | –
[4], 308.15 K | 1.45534 | –
[4], 313.15 K | 1.45363 | –
[4], 318.15 K | 1.45192 | –
[4], 323.15 K | 1.45019 | –
[4], 328.15 K | 1.44849 | –
[4], 333.15 K | 1.44683 | –
[4], 338.15 K | 1.44523 | –
[4], 343.15 K | 1.44374 | –
[4], 348.15 K | 1.4424 | –
[4], 353.15 K | 1.44126 | –

CCCCCCCCCCCCCC[P+](CCCCCC)(CCCCCC)CCCCCC.O=S(=O)([N-]S(=O)(=O)C(F)(F)F)C(F)(F)F + O
w2 = 0.0023
Conditions | refractive index | surface tension liquid-gas [mN/m]
[3], 298.1 K | – | 30.05
[3], 307.8 K | – | 29.33
[3], 318 K | – | 28.6
[3], 328 K | – | 27.91
[3], 338.6 K | – | 27.17
[3], 343.3 K | – | 26.88
[4], 298.15 K | 1.44921 | –
[4], 303.15 K | 1.44765 | –
[4], 308.15 K | 1.44606 | –
[4], 313.15 K | 1.44449 | –
[4], 318.15 K | 1.44293 | –
[4], 323.15 K | 1.44136 | –
[4], 328.15 K | 1.4398 | –
[4], 333.15 K | 1.43822 | –
[4], 338.15 K | 1.43669 | –
[4], 343.15 K | 1.43515 | –
[4], 348.15 K | 1.43362 | –
[4], 353.15 K | 1.43207 | –

CCCCCCCCCCCCCC[P+](CCCCCC)(CCCCCC)CCCCCC.N#C[N-]C#N [tetradecyl(trihexyl)phosphonium dicyanamide]
Conditions | refractive index | surface tension liquid-gas [mN/m]
[1], 298.4 K | – | 32.3
[1], 308 K | – | 31.6
[1], 318 K | – | 30.9
[1], 328.4 K | – | 30.3
[1], 339.2 K | – | 29.7
[1], 343.4 K | – | 29.4
[2], 283.15 K | 1.48861 | –
[2], 288.15 K | 1.48706 | –
[2], 293.15 K | 1.48545 | –
[2], 298.15 K | 1.48387 | –
[2], 303.15 K | 1.48228 | –
[2], 308.15 K | 1.48064 | –
[2], 313.15 K | 1.47902 | –
[2], 318.15 K | 1.47744 | –
[2], 323.15 K | 1.47585 | –
[2], 328.15 K | 1.47421 | –
[2], 333.15 K | 1.47252 | –
[2], 338.15 K | 1.4709 | –
[2], 343.15 K | 1.46926 | –
[2], 348.15 K | 1.46767 | –
[2], 353.15 K | 1.46599 | –

CCCCCCCCCCCCCC[P+](CCCCCC)(CCCCCC)CCCCCC.N#C[N-]C#N [tetradecyl(trihexyl)phosphonium dicyanamide] + O
w2 = 0.0309
Conditions | refractive index | surface tension liquid-gas [mN/m]
[3], 298.2 K | – | 32.56
[3], 307.8 K | – | 31.8
[3], 318 K | – | 31.2
[3], 328 K | – | 30.5
[3], 338.8 K | – | 29.9
[3], 342.8 K | – | 29.5
[4], 298.15 K | 1.47866 | –
[4], 303.15 K | 1.47702 | –
[4], 308.15 K | 1.47535 | –
[4], 313.15 K | 1.47367 | –
[4], 318.15 K | 1.47207 | –
[4], 323.15 K | 1.47049 | –
[4], 328.15 K | 1.46893 | –
[4], 333.15 K | 1.46739 | –
[4], 338.15 K | 1.46586 | –
[4], 343.15 K | 1.46442 | –
[4], 348.15 K | 1.46302 | –
[4], 353.15 K | 1.46163 | –

CCCCCCCCCCCCCC[P+](CCCCCC)(CCCCCC)CCCCCC.[Br-] [tetradecyltrihexylphosphonium bromide]
Conditions | refractive index | surface tension liquid-gas [mN/m]
[1], 298.2 K | – | 30.9
[1], 308.5 K | – | 30.2
[1], 318 K | – | 29.6
[1], 328.8 K | – | 28.7
[1], 338.6 K | – | 28.1
[1], 343.4 K | – | 27.9
[2], 283.15 K | 1.49456 | –
[2], 288.15 K | 1.49295 | –
[2], 293.15 K | 1.49139 | –
[2], 298.15 K | 1.48977 | –
[2], 303.15 K | 1.48814 | –
[2], 308.15 K | 1.48654 | –
[2], 313.15 K | 1.4849 | –
[2], 318.15 K | 1.4833 | –
[2], 323.15 K | 1.48167 | –
[2], 328.15 K | 1.47999 | –
[2], 333.15 K | 1.47834 | –
[2], 338.15 K | 1.47677 | –
[2], 343.15 K | 1.47511 | –
[2], 348.15 K | 1.47346 | –
[2], 353.15 K | 1.47189 | –
